From PubChem BioAssay (NCI)
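Five concentrations, 48 hours, 96-well plates. TGI marks complete inhibition of growth.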

Assays:
Experiment in all cases: NCI-60 cell line screen, 48 h
[1] = tested on: HS 578T breast
[2] = tested on: SK-MEL-28 melanoma
[3] = tested on: IGROV1 ovarian
[4] = tested on: PC-3 prostate
[5] = tested on: M14 melanoma
[6] = tested on: SF-268 CNS
[7] = tested on: NCI-H522 lung
[8] = tested on: SF-295 CNS
[9] = tested on: HCC-2998 colon
[10] = tested on: A549 NSCLC
[11] = tested on: SN12C renal
[12] = tested on: MDA-N
[13] = tested on: OVCAR-5 ovarian
[14] = tested on: COLO 205 colon
[15] = tested on: HOP-62 NSCLC
[16] = tested on: SNB-19 CNS
[17] = tested on: HCT-15 colon
[18] = tested on: ACHN renal
[19] = tested on: EKVX NSCLC
[20] = tested on: OVCAR-3 ovarian
[21] = tested on: MOLT-4 leukemia
[22] = tested on: LOX IMVI melanoma
[23] = tested on: HCT-116 colon
[24] = tested on: NCI-H226 lung
[25] = tested on: DU-145 prostate
[26] = tested on: MDA-MB-435
[27] = tested on: UO-31 renal
[28] = tested on: SK-MEL-2 melanoma
[29] = tested on: TK-10 renal
[30] = tested on: NCI-H23 lung
[31] = tested on: HT29 colon
[32] = tested on: RXF 393 renal
[33] = tested on: MDA-MB-231 breast
[34] = tested on: T-47D breast
[35] = tested on: OVCAR-8 ovarian
[36] = tested on: NCI-H460 lung
[37] = tested on: OVCAR-4 ovarian
[38] = tested on: CCRF-CEM leukemia
[39] = tested on: HL-60(TB) leukemia
[40] = tested on: UACC-62 melanoma
[41] = tested on: CAKI-1 renal
[42] = tested on: A498 renal
[43] = tested on: KM12 colon
[44] = tested on: SNB-75 CNS
[45] = tested on: NCI/ADR-RES ovarian
[46] = tested on: MCF7 breast
[47] = tested on: RPMI-8226 leukemia
[48] = tested on: 786-0 renal
[49] = tested on: MALME-3M melanoma
[50] = tested on: UACC-257 melanoma
[51] = tested on: SF-539 CNS
[52] = tested on: SK-MEL-5 melanoma
[53] = tested on: SW-620 colon
[54] = tested on: SR leukemia
[55] = tested on: K-562 leukemia
[56] = tested on: BT-549 breast
[57] = tested on: SK-OV-3 ovarian
[58] = tested on: U251 CNS
[59] = tested on: HOP-92 NSCLC

CNc1cccc2c1C(C)C[C@]1(C)C(=O)Nc3ccccc3[C@H]21 (some centres undefined)
TGI [1]: 53.6 µM | TGI [2]: 91.8 µM | TGI [3]: > 100 µM | TGI [4]: 74.5 µM | TGI [5]: 41.5 µM | TGI [6]: > 100 µM | TGI [7]: 89 µM | TGI [8]: 34.2 µM | TGI [9]: > 100 µM | TGI [10]: 38.6 µM | TGI [11]: 48.5 µM | TGI [12]: 69.9 µM | TGI [13]: > 100 µM | TGI [14]: > 100 µM | TGI [15]: 36.4 µM | TGI [16]: 54 µM | TGI [17]: > 100 µM | TGI [18]: 50.8 µM | TGI [19]: > 100 µM | TGI [20]: 34.6 µM | TGI [21]: > 100 µM | TGI [22]: 33.7 µM | TGI [23]: 34.8 µM | TGI [24]: 61.4 µM | TGI [25]: > 100 µM | TGI [26]: 53.4 µM | TGI [27]: 52.4 µM | TGI [28]: 55.3 µM | TGI [29]: 37.2 µM | TGI [30]: > 100 µM | TGI [31]: 81.6 µM | TGI [32]: 50 µM | TGI [33]: 42.9 µM | TGI [34]: > 100 µM | TGI [35]: 39.1 µM | TGI [36]: 41.1 µM | TGI [37]: 35.9 µM | TGI [38]: > 100 µM | TGI [39]: > 100 µM | TGI [40]: > 100 µM | TGI [41]: 63.7 µM | TGI [42]: 43.6 µM | TGI [43]: 87.1 µM | TGI [44]: 28.3 µM | TGI [45]: 45.4 µM | TGI [46]: 47.4 µM | TGI [47]: > 100 µM | TGI [48]: 32.9 µM | TGI [49]: 47.7 µM | TGI [50]: 39.3 µM | TGI [51]: > 100 µM | TGI [52]: > 100 µM | TGI [53]: > 100 µM | TGI [54]: 43.3 µM | TGI [55]: > 100 µM

C=C(C)CCN(C(=O)OC(C)(C)C)c1cc(C(C)C)co1
TGI [2]: > 100 µM | TGI [3]: > 100 µM | TGI [4]: 99.6 µM | TGI [5]: > 100 µM | TGI [6]: 55.7 µM | TGI [8]: > 100 µM | TGI [9]: > 100 µM | TGI [10]: > 100 µM | TGI [11]: > 100 µM | TGI [12]: > 100 µM | TGI [13]: > 100 µM | TGI [56]: > 100 µM | TGI [14]: > 100 µM | TGI [15]: > 100 µM | TGI [16]: > 100 µM | TGI [17]: > 100 µM | TGI [18]: > 100 µM | TGI [19]: > 100 µM | TGI [20]: > 100 µM | TGI [21]: 98 µM | TGI [57]: > 100 µM | TGI [22]: 96.7 µM | TGI [23]: > 100 µM | TGI [24]: > 100 µM | TGI [58]: > 100 µM | TGI [25]: > 100 µM | TGI [26]: > 100 µM | TGI [27]: > 100 µM | TGI [28]: > 100 µM | TGI [29]: > 100 µM | TGI [30]: > 100 µM | TGI [31]: > 100 µM | TGI [33]: > 100 µM | TGI [34]: > 100 µM | TGI [35]: > 100 µM | TGI [37]: > 100 µM | TGI [38]: > 100 µM | TGI [39]: 43.8 µM | TGI [40]: > 100 µM | TGI [41]: > 100 µM | TGI [42]: > 100 µM | TGI [43]: > 100 µM | TGI [45]: > 100 µM | TGI [46]: > 100 µM | TGI [47]: 57.3 µM | TGI [59]: 61 µM | TGI [48]: > 100 µM | TGI [50]: > 100 µM | TGI [51]: > 100 µM | TGI [52]: > 100 µM | TGI [53]: > 100 µM | TGI [54]: > 100 µM | TGI [55]: > 100 µM

Cc1ccccc1C1CC(=O)CC(c2ccccc2C)C12C(=O)NC(=S)NC2=O (centres undefined)
TGI [1]: 97.2 µM | TGI [2]: 44.5 µM | TGI [4]: 70 µM | TGI [5]: 91.8 µM | TGI [6]: > 100 µM | TGI [8]: > 100 µM | TGI [9]: 25.2 µM | TGI [10]: > 100 µM | TGI [11]: 67 µM | TGI [12]: > 100 µM | TGI [13]: > 100 µM | TGI [14]: 42.4 µM | TGI [15]: > 100 µM | TGI [16]: > 100 µM | TGI [17]: 56.6 µM | TGI [18]: 38.6 µM | TGI [19]: > 100 µM | TGI [20]: 82.8 µM | TGI [21]: > 100 µM | TGI [57]: > 100 µM | TGI [22]: 35.8 µM | TGI [23]: 49 µM | TGI [24]: 44.2 µM | TGI [58]: > 100 µM | TGI [25]: > 100 µM | TGI [26]: 62.4 µM | TGI [27]: 43.2 µM | TGI [28]: 40.3 µM | TGI [29]: > 100 µM | TGI [30]: > 100 µM | TGI [31]: 54.3 µM | TGI [32]: 38.8 µM | TGI [33]: 90.1 µM | TGI [34]: > 100 µM | TGI [36]: 41.8 µM | TGI [37]: > 100 µM | TGI [38]: 70.4 µM | TGI [39]: 59.2 µM | TGI [40]: 38.2 µM | TGI [41]: > 100 µM | TGI [42]: 72.2 µM | TGI [43]: 53.6 µM | TGI [44]: 70.7 µM | TGI [45]: > 100 µM | TGI [46]: > 100 µM | TGI [47]: 38.6 µM | TGI [59]: > 100 µM | TGI [48]: > 100 µM | TGI [49]: 78.4 µM | TGI [50]: 52.4 µM | TGI [51]: 48.9 µM | TGI [52]: 32.7 µM | TGI [53]: 90.4 µM | TGI [54]: > 100 µM | TGI [55]: > 100 µM

COc1ccc2oc(=O)c(-c3csc(-c4ccccc4)n3)cc2c1
TGI [1]: 94.5 µM | TGI [2]: > 100 µM | TGI [3]: > 100 µM | TGI [4]: > 100 µM | TGI [5]: > 100 µM | TGI [6]: 71.2 µM | TGI [8]: 53.6 µM | TGI [9]: > 100 µM | TGI [10]: > 100 µM | TGI [12]: > 100 µM | TGI [13]: > 100 µM | TGI [56]: 50.2 µM | TGI [14]: > 100 µM | TGI [15]: 34.3 µM | TGI [16]: 45 µM | TGI [17]: > 100 µM | TGI [18]: > 100 µM | TGI [19]: > 100 µM | TGI [21]: > 100 µM | TGI [57]: 38 µM | TGI [22]: > 100 µM | TGI [23]: > 100 µM | TGI [24]: > 100 µM | TGI [58]: 52.4 µM | TGI [25]: > 100 µM | TGI [26]: > 100 µM | TGI [27]: 47.1 µM | TGI [28]: > 100 µM | TGI [29]: 50.6 µM | TGI [31]: > 100 µM | TGI [32]: 59.3 µM | TGI [33]: > 100 µM | TGI [34]: > 100 µM | TGI [36]: > 100 µM | TGI [37]: 97.9 µM | TGI [38]: > 100 µM | TGI [39]: > 100 µM | TGI [40]: > 100 µM | TGI [41]: > 100 µM | TGI [43]: > 100 µM | TGI [44]: 71.7 µM | TGI [46]: > 100 µM | TGI [47]: > 100 µM | TGI [59]: 56 µM | TGI [48]: 34.3 µM | TGI [50]: > 100 µM | TGI [51]: 31.2 µM | TGI [52]: > 100 µM | TGI [53]: > 100 µM | TGI [54]: > 100 µM | TGI [55]: > 100 µM
